What all share (type): cell-based
In one experiment the test system is Propionibacterium acnes. Description: Minimum Inhibitory Concentration (MIC), Macrodilution Broth Method, Propionibacterium acnes ATCC strains. The following applies: Cutibacterium acnes. An excerpt: (§1) This study, a Minimum Inhibitory Concentration (MIC), will be performed based upon the Macrodilution Broth Method outlined in CLSJ Document M07-A 10, Methods for Dilution Antimicrobial Susceptibility Tests for Bacteria that Gro111 Aerobically, Tenth Edition, and CLSI Document MI I-A8, Methods for Antimicrobial Susceptibility Testing of Anaerobic Bacteria, Eighth Edition.
(§2) The Test Material will be evaluated versus at total of 17 different microorganism strains: 7 strains of Methicillin resistant Staphylococcus aureus, 6 stains of Propionibacterium acnes, 2 strains of Erythromycin resistant Propionibacterium acnes, and 2 strains of Tetracycline resistant Propionibacterium acnes. Positive Control Material #1 will be evaluated versus 2 strains of Erythromycin resistant Propionibacterium acnes. Positive Control Material #2 will be evaluated versus 2 strains of Tetracycline resistant Propionibacterium acnes.
(§3) A suspension of each challenge strain will be prepared and exposed to each of 10 doubling dilutions of the test material or positive control materials prepared in the appropriate nutrient broth (reference Table I). Following incubation, the Minimum Inhibitory Concentration (MIC) of the test material and positive control materials will be determined visually and documented.
(§4) 2 to 6 days prior to testing, sterile tubes containing Reinforced Clostridial Medium (RCM) will be inoculated from lyophilized vials or cryogenic stock cultures containing these species. The broth cultures will be incubated anaerobically at 35±2° C. for 1 to 3 days, or until sufficient growth is observed.
(§5) The purity of each broth culture will be verified by preparing duplicate isolation streaks on Chocolate Agar with Enrichment (CAE), and incubating one plate aerobically and one anaerobically at 35±2° C.
(§6) Following incubation, initial suspensions containing approximately 10^8 CFU/mL will be prepared for each species by centrifuging the broth culture tubes, combining the resulting pellets, and resuspending them in additional broth.
(§7) Final Challenge Suspensions containing approximately 1×10^6 CFU/mL of each microorganism strain will be prepared by transferring aliquots of the 10^8 CFU/mL initial suspensions into separate containers containing a volume of the appropriate broth media sufficient to the needs of testing.
(§8) On each day of testing, the Test Material will be diluted (v/v) using the appropriate broth media to produce an intermediate solution containing […] of Cannabidiol.
(§9) A series of 1:2 (v/v) dilutions of intermediate Test Material solution will be prepared using the appropriate broth media, to produce active concentrations of 100 μg/mL, 50 μg/mL, 25 μg/mL, 12.5 μg/mL, 6.25 μg/mL, 3.125 μg/mL, 1.562 μg/mL, 0.781 μg/mL, 0.390 μg/mL, and 0.195 μg/mL.
(§10) A 1.0 mL aliquot of the intermediate Test Material solution (100 μg/mL), and 1.0 mL aliquots of each of the 9 test material dilutions prepared will be transferred to separate sterile test tubes. For each challenge microorganism, three sets of test tubes will be prepared for the Test Material.
(§11) A 1.0 mL aliquot of a challenge suspension containing approximately 1×10^6 CFU/mL will be dispensed into each dilution tube in each series.
(§12) Following inoculation, final active Test Material concentrations of 50 μg/mL, 25 μg/mL, 12.5 μg/mL, 6.25 μg/mL, 3.125 ug/ml, 1.562 μg/mL, 0.781 μg/mL, 0.390 ug/ml, 0.195 μg/mL and 0.0976 μg/mL will be produced.
(§13) Each dilution tube will contain approximately 5×10^5 CFU/mL of the challenge microorganism.
Positive Control Tubes (Growth Controls) containing a 1.0 mL aliquot of the appropriate broth media, and a 1.0 mL aliquot of challenge suspension will be prepared using each microorganism strain.
Negative Control Tubes (Sterility Controls; no microbial inoculation) of each broth media will be prepared.
Following incubation, the tubes will be examined for growth of the challenge microorganism, as determined visually on the basis of turbidity.

The test system of experiment [1] is Propionibacterium acnes Erythromycin Resistant Clinical Isolates. Kind of experiment: MIC, Macrodilution Broth Method, Erythromycin resistant P. acnes clinical isolates. Conditions: for MIC: Cutibacterium acnes, read-out: Minimum Inhibitory Concentration (MIC); for Minimum Inhibitory Concentration (MIC): Erythromycin resistant P. acnes clinical isolate BSLI #281014Pa6.
From the text: as §1, §2, §3, §4, §5, §6, §7, §8
(§14) A series of 1:2 (v/v) dilutions of intermediate Test Material solution will be prepared using the appropriate broth media, to produce active concentrations of 100 μg/mL, 50 μg/mL, 25 μg/mL, 12.5 μg/mL, 6.25 μg/mL, 3.125 μg/mL, 1.562 μg/mL, 0.781 μg/mL, 0.390 μg/mL, and 0.195 μg/mL. […]

Experiment [2] deals with Propionibacterium acnes Tetracycline Resistant Clinical Isolates. Kind of experiment: microbe, parasite or virus in culture. The following applies: Cutibacterium acnes.
From the text: as §1, §2, §3, §4, §5, §6, §7, §8, §14

The subject of experiment [3] is Methicillin resistant Staphylococcus aureus. Description: microbe, parasite or virus in culture.
From the text: as §1, §2, §3
2 to 4 days prior to testing, inocula from lyophilized vials or cryogenic stock cultures containing each species will be suspended in 0.9% Sodium Chloride Irrigation, USP (SCI), inoculated onto the surface of Tryptic Soy Agar (TSA) contained in Petri plates, and incubated at 35±2° C. for 24 to 48 hours, or until sufficient growth is observed.
24 to 48 hours prior to testing, growth from the agar plates previously prepared will be suspended in SCI.
The purity of each suspension will be verified by preparing isolation streaks of each culture on TSA. Aliquots of each suspension will then be spread-plated onto the surface of additional plates of TSA and incubated at 35±2° C. until sufficient growth is observed. This will produce lawns of the bacteria on the surface of the agar plates, and growth from these will be used to prepare the challenge suspensions.
Immediately prior to testing, an initial suspension of each species will be prepared in SCI by suspending the microorganisms from the solid media to achieve initial suspension concentrations of approximately 10^8 CFU/mL. The suspensions may be centrifuged, if deemed necessary, to achieve the desired concentration.
as §7, §8, §9, §10, §11, §12, §13

Setting [4] is: read-out: Minimum Inhibitory Concentration (MIC), Tetracycline resistant P. acnes clinical isolate BSLI #281014Pa2.
Where [5] appears, read: read-out: Minimum Inhibitory Concentration (MIC), Tetracycline resistant P. acnes clinical isolate BSLI #281014Pa4.

Each structure is given as a SMILES string. Converted amounts (≈) assume the structure as drawn. Counter-ions that a name gives are not always drawn. Like-named read-outs stand apart in the source and are kept apart here.

As to `C=C(C)[C@@H]1CCC(C)=C[C@H]1c1c(O)cc(CCCCC)cc1O` [Cannabidiol], the MIC in the experiment with Propionibacterium acnes (ATCC6919, Propionibacterium acnes ATCC #6919, anaerobic, RCM broth, read-out: Minimum Inhibitory Concentration (MIC)) came to 3.12 µg/mL (≈ 9.94 µM); in the experiment with Propionibacterium acnes (ATCC6922, Propionibacterium acnes ATCC #6922, anaerobic, RCM broth, read-out: Minimum Inhibitory Concentration (MIC)), 6.25 µg/mL (≈ 19.9 µM); with Propionibacterium acnes (ATCC6923, Propionibacterium acnes ATCC #6923, anaerobic, RCM broth, read-out: Minimum Inhibitory Concentration (MIC)), 6.25 µg/mL (≈ 19.9 µM); in the experiment with Propionibacterium acnes (ATCC11827, Propionibacterium acnes ATCC #11827, anaerobic, RCM broth, read-out: Minimum Inhibitory Concentration (MIC)), 3.12 µg/mL (≈ 9.94 µM); with Propionibacterium acnes (ATCC11828, Propionibacterium acnes ATCC #11828, anaerobic, RCM broth, read-out: Minimum Inhibitory Concentration (MIC)), 6.25 µg/mL (≈ 19.9 µM); in the experiment on Propionibacterium acnes (ATCC51277, Propionibacterium acnes ATCC #51277, anaerobic, RCM broth, read-out: Minimum Inhibitory Concentration (MIC)) it was 6.25 µg/mL (≈ 19.9 µM). Moreover, the MIC is 3.12 to 6.25 µg/mL (≈ 9.94 to 19.9 µM) with Propionibacterium acnes (all P. acnes strains tested, including strains resistant to other antibiotics, read-out: MIC against Propionibacterium acnes (summary over all strains)); 6.25 µg/mL (≈ 19.9 µM) in experiment [1]; 3.12 µg/mL (≈ 9.94 µM) in experiment [2] (setting [4]); 6.25 µg/mL (≈ 19.9 µM) in experiment [2] (setting [5]); 1.56 µg/mL (≈ 4.97 µM) in experiment [3] (ATCC33592, read-out: Minimum Inhibitory Concentration (MIC)); 1.56 µg/mL (≈ 4.97 µM) in experiment [3] (ATCCBAA41, read-out: Minimum Inhibitory Concentration (MIC)). For the same compound, the MIC in experiment [3] (ATCCBAA42, read-out: Minimum Inhibitory Concentration (MIC)) is 1.56 µg/mL (≈ 4.97 µM); in experiment [3] (ATCCBAA44, read-out: Minimum Inhibitory Concentration (MIC)), 1.56 µg/mL (≈ 4.97 µM); in experiment [3] (ATCCBAA1683, read-out: Minimum Inhibitory Concentration (MIC)) it was 1.56 µg/mL (≈ 4.97 µM); in experiment [3] (ATCCBAA2094, read-out: Minimum Inhibitory Concentration (MIC)), 1.56 µg/mL (≈ 4.97 µM); in experiment [3] (ATCCBAA2313, read-out: Minimum Inhibitory Concentration (MIC)), 1.56 µg/mL (≈ 4.97 µM); in experiment [3] (read-out: MIC against Staphylococcus aureus (summary over all strains)), roughly 1.56 µg/mL (≈ 4.97 µM). The “Minimum Inhibitory Concentration (MIC)” value in experiment [1] turned out to be 6.25 µg/mL.
In the case of `CC[C@H]1OC(=O)[C@H](C)[C@@H](O[C@H]2C[C@@](C)(OC)[C@@H](O)[C@H](C)O2)[C@H](C)[C@@H](O[C@@H]2O[C@H](C)C[C@H](N(C)C)[C@H]2O)[C@](C)(O)C[C@@H](C)C(=O)[C@H](C)[C@@H](O)[C@]1(C)O` [Erythromycin, reference compound], in experiment [1], the MIC was found to be 2050 µg/mL (≈ 2790 µM) and the “Minimum Inhibitory Concentration (MIC)” value is 2048 µg/mL.
On to `CN(C)[C@@H]1C(O)=C(C(N)=O)C(=O)[C@@]2(O)C(O)=C3C(=O)c4c(O)cccc4[C@@](C)(O)[C@H]3C[C@@H]12` [Tetracycline HCl, reference compound], for which the values for the MIC in experiment [2] (setting [4]) and in experiment [2] (setting [5]) were 64 µg/mL and 128 µg/mL, respectively.

(Values after patent publication US20200289430A1, “Antibacterial Treatments Using Cannabinoids” (priority 2017, published 2020).)
